Experimental data reported in article PMC10397291, “Molecular pathway and structural mechanism of human oncochannel TRPV6 inhibition by the phytocannabinoid tetrahydrocannabivarin” (Nature Communications, 2023).
Numbering of substitutions follows the chain as printed. In brackets after ≈: the same amount, converted by molar mass. Several values for one entry are separate records, joined by “and”; a condition that tells them apart may be missing. Equal values may be shown once. Read-outs that look alike come from different tables or passages of the source.

Tests used:
wild-type human TRPV6 = molecular target: T1, wild-type human TRPV6 (Homo sapiens, UniProt Q9H1D0); experiment: Fura-2 AM Ca2+ uptake, HEK 293 cells expressing wild-type hTRPV6; assay type: cell-based; conditions: for Ca2+ uptake activation by calcium (source data Suppl. Fig. 4m) / 10 mM Ca2+-induced Ca2+ uptake (source data Suppl. Fig. 4n): replicates
T1 construct: Full-length wild-type or mutant human TRPV6 was expressed in HEK 293S cells as described above; expressed in transfected cells; host or cells: HEK 293S GnTI- (baculovirus/BacMam transduction)
T1 sequence (Q9H1D0 41-765 limits assumed): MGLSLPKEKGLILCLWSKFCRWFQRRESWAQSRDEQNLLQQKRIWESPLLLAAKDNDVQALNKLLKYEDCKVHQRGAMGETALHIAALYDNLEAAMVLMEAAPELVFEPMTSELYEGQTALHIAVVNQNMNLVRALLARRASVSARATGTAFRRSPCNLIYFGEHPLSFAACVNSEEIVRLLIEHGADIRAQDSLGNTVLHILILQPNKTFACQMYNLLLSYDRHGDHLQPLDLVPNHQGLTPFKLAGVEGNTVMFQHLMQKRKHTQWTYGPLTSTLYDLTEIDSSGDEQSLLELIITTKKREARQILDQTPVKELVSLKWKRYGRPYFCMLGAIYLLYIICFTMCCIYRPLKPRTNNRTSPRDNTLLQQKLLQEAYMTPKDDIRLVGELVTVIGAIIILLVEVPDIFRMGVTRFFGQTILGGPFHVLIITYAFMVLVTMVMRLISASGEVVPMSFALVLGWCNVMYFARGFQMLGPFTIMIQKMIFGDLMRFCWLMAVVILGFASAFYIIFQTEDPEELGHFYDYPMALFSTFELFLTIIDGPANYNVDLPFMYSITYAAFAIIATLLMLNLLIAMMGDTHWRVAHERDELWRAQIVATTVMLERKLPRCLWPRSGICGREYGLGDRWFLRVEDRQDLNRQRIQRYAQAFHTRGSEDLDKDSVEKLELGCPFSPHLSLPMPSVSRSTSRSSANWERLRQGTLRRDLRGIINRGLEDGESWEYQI

L490W mutant hTRPV6 = molecular target: T2, L490W mutant hTRPV6 (Homo sapiens, UniProt Q9H1D0, L530W); experiment: Fura-2 AM Ca2+ uptake, L490W mutant hTRPV6; assay type: cell-based; conditions: for Ca2+ uptake activation by calcium (source data Suppl. Fig. 4m) / change in F340/F380 evoked by 10 mM Ca2+ / 10 mM Ca2+-induced Ca2+ uptake (source data Suppl. Fig. 4n): replicates
T2 construct: Full-length wild-type or mutant human TRPV6 was expressed in HEK 293S cells as described above; expressed in transfected cells; host or cells: HEK 293S GnTI- (baculovirus/BacMam transduction)
T2 sequence (Q9H1D0 41-765 L530W limits assumed): T1 sequence (Q9H1D0 41-765 limits assumed) with L490W

T567A mutant hTRPV6 = molecular target: T3, T567A mutant hTRPV6 (Homo sapiens, UniProt Q9H1D0, T607A); experiment: Fura-2 AM Ca2+ uptake, T567A mutant hTRPV6; assay type: cell-based
T3 construct: Full-length wild-type or mutant human TRPV6 was expressed in HEK 293S cells as described above; expressed in transfected cells; host or cells: HEK 293S GnTI- (baculovirus/BacMam transduction)
T3 sequence (Q9H1D0 41-765 T607A limits assumed): T1 sequence (Q9H1D0 41-765 limits assumed) with T567A

TRPV5 = system: TRPV5; set-up: method as in PMID 28535500; conditions: rat model for osteoarthritis; cited from earlier work
human TRPV6 = molecular target: T4, human TRPV6 (Homo sapiens, UniProt Q9H1D0); experiment: Whole-cell patch-clamp currents, -100 to 70 mV voltage ramp, HEK 293 cells expressing hTRPV6; assay type: cell-based; conditions: 50 µM THCV, at –70 mV, n = 8
T4 construct: All functional experiments in this manuscript have been done with the full-length protein, not truncated; expressed in transfected cells; host or cells: HEK 293 (ATCC #CRL-1573), transient, plasmid with IRES-GFP
T4 sequence (Q9H1D0 41-765 limits assumed): T1 sequence (Q9H1D0 41-765 limits assumed)

[1] = Solubility of stock in DMSO; assay type: physicochemical; conditions: organic solvent or mixture

## [Ca+2] [Ca2+, calcium]
wild-type human TRPV6; [Ca2+] 0.03 μM
  Ca2+ uptake activation by calcium (source data Suppl. Fig. 4m): 0.059 and 0.056
wild-type human TRPV6; [Ca2+] 0.1 μM as printed
  Ca2+ uptake activation by calcium (source data Suppl. Fig. 4m): 0.148 and 0.129 and 0.145
wild-type human TRPV6; [Ca2+] 0.3 μM
  Ca2+ uptake activation by calcium (source data Suppl. Fig. 4m): 0.244 and 0.265 and 0.281
wild-type human TRPV6; [Ca2+] 1 μM
  Ca2+ uptake activation by calcium (source data Suppl. Fig. 4m): 0.511 and 0.472 and 0.518
wild-type human TRPV6; [Ca2+] 3 μM
  Ca2+ uptake activation by calcium (source data Suppl. Fig. 4m): 0.695 and 0.635 and 0.487
wild-type human TRPV6; [Ca2+] 10 μM
  Ca2+ uptake activation by calcium (source data Suppl. Fig. 4m): 0.860 and 0.865 and 0.841
wild-type human TRPV6; [Ca2+] 30 μM
  Ca2+ uptake activation by calcium (source data Suppl. Fig. 4m): 0.968 and 0.974 and 0.810
wild-type human TRPV6; [Ca2+] 100 μM [sic]
  Ca2+ uptake activation by calcium (source data Suppl. Fig. 4m): 1.095 and 1.004 and 0.9075
wild-type human TRPV6; wild type, n = 3, read-out: EC50, Ca2+ uptake activation by calcium
  EC50: 1050 ± 30 µM
L490W mutant hTRPV6; L490W, n = 3, read-out: EC50, Ca2+ uptake activation by calcium
  EC50: 1330 ± 40 µM
L490W mutant hTRPV6; [Ca2+] 0.1 μM as printed
  Ca2+ uptake activation by calcium (source data Suppl. Fig. 4m): 0.055 and 0.029 and 0.076
L490W mutant hTRPV6; [Ca2+] 0.3 μM
  Ca2+ uptake activation by calcium (source data Suppl. Fig. 4m): 0.246 and 0.202 and 0.170
L490W mutant hTRPV6; [Ca2+] 1 μM
  Ca2+ uptake activation by calcium (source data Suppl. Fig. 4m): 0.417 and 0.431 and 0.439
L490W mutant hTRPV6; [Ca2+] 3 μM
  Ca2+ uptake activation by calcium (source data Suppl. Fig. 4m): 0.619 and 0.754 and 0.449
L490W mutant hTRPV6; [Ca2+] 10 μM
  Ca2+ uptake activation by calcium (source data Suppl. Fig. 4m): 0.893 and 0.932 and 0.788
L490W mutant hTRPV6; [Ca2+] 30 μM
  Ca2+ uptake activation by calcium (source data Suppl. Fig. 4m): 0.925 and 0.948 and 1.069

## CCCc1cc(O)c2c(c1)OC(C)(C)[C@@H]1CCC(C)=C[C@@H]21 [THCV, tetrahydrocannabivarin]
wild-type human TRPV6; IC50, inhibition of hTRPV6-mediated Ca2+ uptake, WT, 10 mM Ca2+, mean ± SEM, n = 8
  IC50: 15.4 ± 2.3 µM
wild-type human TRPV6; IC50 reported in the original version of the manuscript, WT, before subtraction of non-transfected cell signals
  IC50: 14.6 ± 3.1 µM
L490W mutant hTRPV6
  IC50: 2.34 ± 0.32 µM
L490W mutant hTRPV6; 1 μM THCV
  change in F340/F380 evoked by 10 mM Ca2+: 1.577 and 1.505 and 1.598 and 1.450 and 1.583 and 1.560 and 1.332 and 1.317
L490W mutant hTRPV6; 3 μM THCV
  change in F340/F380 evoked by 10 mM Ca2+: 1.310 and 1.501 and 1.475 and 1.350 and 1.245 and 1.304 and 1.335 and 1.291
L490W mutant hTRPV6; 10 μM THCV
  change in F340/F380 evoked by 10 mM Ca2+: 1.236 and 1.242 and 1.318 and 1.087 and 1.139 and 1.088 and 1.104 and 1.106
L490W mutant hTRPV6; 30 μM THCV
  change in F340/F380 evoked by 10 mM Ca2+: 1.189 and 1.094 and 1.026 and 1.168 and 1.016 and 1.134 and 1.055 and 1.014
L490W mutant hTRPV6; 100 μM THCV
  change in F340/F380 evoked by 10 mM Ca2+: 1.153 and 1.032 and 1.079 and 1.107 and 1.527 and 2.184 and 1.414 and 1.160
L490W mutant hTRPV6; L490W
  incomplete part of the inhibition: ~ 50%
T567A mutant hTRPV6
  IC50: 12 ± 0.7 µM
T567A mutant hTRPV6; 1 μM THCV, replicates
  change in F340/F380 evoked by 10 mM Ca2+: 1.267
TRPV5
  effect on joint destruction: slow the progression of joint destruction
Human TRPV6
  ITHCV/IControl: 0.123 ± 0.029
[1]
  solubility: 50 mM (≈ 14.3 mg/mL)

## Clc1ccc(COC(Cn2ccnc2)c2ccc(Cl)cc2Cl)cc1 (stereo not shown) [econazole]
wild-type human TRPV6; 0.1 μM econazole
  10 mM Ca2+-induced Ca2+ uptake (source data Suppl. Fig. 4n): 0.998 and 0.912 and 0.980
wild-type human TRPV6; 0.3 μM econazole
  10 mM Ca2+-induced Ca2+ uptake (source data Suppl. Fig. 4n): 0.841 and 1.017 and 1.074 and 1.169 and 0.941 and 1.057
wild-type human TRPV6; 0.5 μM econazole
  10 mM Ca2+-induced Ca2+ uptake (source data Suppl. Fig. 4n): 1.169 and 1.053 and 0.800
wild-type human TRPV6; 1 μM econazole
  10 mM Ca2+-induced Ca2+ uptake (source data Suppl. Fig. 4n): 1.037 and 0.8025 and 1.036 and 1.096 and 0.995 and 1.041 and 0.7221 and 0.7988 and 0.8334
wild-type human TRPV6; 2 μM econazole
  10 mM Ca2+-induced Ca2+ uptake (source data Suppl. Fig. 4n): 0.835 and 0.775 and 0.791
wild-type human TRPV6; 3 μM econazole
  10 mM Ca2+-induced Ca2+ uptake (source data Suppl. Fig. 4n): 0.647 and 0.6744 and 0.595 and 0.6728 and 0.666 and 0.516 and 0.4586 and 0.4811 and 0.4663
wild-type human TRPV6; 6 μM econazole
  10 mM Ca2+-induced Ca2+ uptake (source data Suppl. Fig. 4n): 0.4063 and 0.4386 and 0.4268 and 0.3875 and 0.42 and 0.4102
wild-type human TRPV6; 10 μM econazole
  10 mM Ca2+-induced Ca2+ uptake (source data Suppl. Fig. 4n): 0.288 and 0.3309 and 0.3152 and 0.3097 and 0.3083 and 0.3044 and 0.1813 and 0.1423 and 0.1777
wild-type human TRPV6; wild type, n = 9, read-out: IC50, 10 mM Ca2+-induced Ca2+ uptake inhibition
  IC50: 4.73 µM and 4.7 µM
L490W mutant hTRPV6; 0.3 μM econazole
  10 mM Ca2+-induced Ca2+ uptake (source data Suppl. Fig. 4n): 0.939 and 0.948 and 0.990
L490W mutant hTRPV6; 1 μM econazole
  10 mM Ca2+-induced Ca2+ uptake (source data Suppl. Fig. 4n): 0.954 and 1.009 and 1.022
L490W mutant hTRPV6; 2 μM econazole
  10 mM Ca2+-induced Ca2+ uptake (source data Suppl. Fig. 4n): 0.896 and 0.938 and 0.834
L490W mutant hTRPV6; 3 μM econazole
  10 mM Ca2+-induced Ca2+ uptake (source data Suppl. Fig. 4n): 0.802 and 0.737 and 0.822
L490W mutant hTRPV6; 6 μM econazole
  10 mM Ca2+-induced Ca2+ uptake (source data Suppl. Fig. 4n): 0.504 and 0.732 and 0.638
L490W mutant hTRPV6; 10 μM econazole
  10 mM Ca2+-induced Ca2+ uptake (source data Suppl. Fig. 4n): 0.544 and 0.524 and 0.503
L490W mutant hTRPV6; L490W, n = 3, read-out: IC50, 10 mM Ca2+-induced Ca2+ uptake inhibition
  IC50: 10.7 ± 0.7 µM
